{"source": "patent US9402831B2", "about": "“Combination therapy of HSP90 inhibitors with BRAF inhibitors” (Synta Pharmaceuticals Corp., priority 2011, dated 2016)", "key": {"RPMI-7951 melanoma cells [1]": {"test_system": "RPMI-7951 melanoma cells", "experiment": "Western blotting, RPMI-7951 cells", "format": "cell-based, human", "conditions": "western blot, FIG. 5", "protocol": "(§1) Human melanoma cell lines carrying the V600E BRAF mutation (A375, SK-MEL-28, RPMI-7951) and human prostate cancer cells (LNCaP, 22Rv1) were purchased from the American Type Culture Collection (Manassas, Va.) and grown following ATCC recommendations, in the presence of fetal bovine serum (10%), 2 mM L-glutamine and antibiotics (100 IU/ml penicillin and 100 μg/ml streptomycin) purchased from Sigma Aldrich. Cells were maintained at 37° C., 5% CO2 atmosphere.\n(§2) Cells, treated with compound for 24 hr, were lysed in RIPA buffer (CST, Danvers, Mass., USA) on ice and clarified by centrifugation. Equal amounts of proteins were resolved by SDS-PAGE and immunoblotted with indicated antibodies. The antigen-antibody complex was visualized and quantitated using an Odyssey system (LI-COR, Lincoln, Nebr., USA)."}, "ACN": {"test_system": "ACN", "experiment": "Cell viability assay (Cell Titer-Glo), ACN", "format": "cell-based", "conditions": "Homo sapiens, neuroblastoma, BRAF V600E, read-out: Ganetespib IC50", "protocol": "(§3) Cell viability was measured using the Cell Titer-Glo assay (Promega). In brief, cells were plated in 96-well plates in triplicate at optimal seeding density (determined empirically for each cell line) and incubated at 37° C., 5% CO2 atmosphere for 24 hr prior to the addition of drug or vehicle (0.3% DMSO) to the culture medium. At the end of the assay, Cell Titer-Glow was added to the wells per manufactures recommendation, shaken for two minutes and incubated for 10 minutes at room temperature. Luminescence (0.1 sec) was measured with a Victor II microplate reader (Perkin Elmer) and the resulting data were used to calculate cell viability, normalized to vehicle control."}, "RKO": {"test_system": "RKO", "experiment": "Cell viability assay (Cell Titer-Glo), RKO", "format": "cell-based", "conditions": "Homo sapiens, carcinoma, BRAF V600E, read-out: Ganetespib IC50", "protocol": "as §3"}, "IST-MEL1": {"test_system": "IST-MEL1", "experiment": "Cell viability assay (Cell Titer-Glo), IST-MEL1", "format": "cell-based", "conditions": "Homo sapiens; IST-MEL1, malignant melanoma, BRAF V600E; read-out: Ganetespib IC50", "protocol": "as §3"}, "LS-411N": {"test_system": "LS-411N", "experiment": "Cell viability assay (Cell Titer-Glo), LS-411N", "format": "cell-based", "conditions": "Homo sapiens, carcinoma, BRAF V600E, read-out: Ganetespib IC50", "protocol": "as §3"}, "COLO-829": {"test_system": "COLO-829", "experiment": "Cell viability assay (Cell Titer-Glo), COLO-829", "format": "cell-based", "conditions": "Homo sapiens; COLO-829, malignant melanoma, BRAF V600E; read-out: Ganetespib IC50", "protocol": "as §3"}, "HT-144": {"test_system": "HT-144", "experiment": "Cell viability assay (Cell Titer-Glo), HT-144", "format": "cell-based", "conditions": "Homo sapiens; HT-144, malignant melanoma, BRAF V600E; read-out: Ganetespib IC50", "protocol": "as §3"}, "SK-HEP-1": {"test_system": "SK-HEP-1", "experiment": "Cell viability assay (Cell Titer-Glo), SK-HEP-1", "format": "cell-based", "conditions": "Homo sapiens, SK-HEP1; SK-HEP-1, carcinoma, BRAF V600E; read-out: Ganetespib IC50", "protocol": "as §3"}, "A101D": {"test_system": "A101D", "experiment": "Cell viability assay (Cell Titer-Glo), A101D", "format": "cell-based", "conditions": "Homo sapiens, malignant melanoma, BRAF V600E, read-out: Ganetespib IC50", "protocol": "as §3"}, "SW982": {"test_system": "SW982", "experiment": "Cell viability assay (Cell Titer-Glo), SW982", "format": "cell-based", "conditions": "Homo sapiens; SW982, synovial sarcoma, BRAF V600E; read-out: Ganetespib IC50", "protocol": "as §3"}, "K5": {"test_system": "K5", "experiment": "Cell viability assay (Cell Titer-Glo), K5", "format": "cell-based", "conditions": "Homo sapiens; K5, carcinoma, BRAF V600E; read-out: Ganetespib IC50", "protocol": "as §3"}, "SH-4": {"test_system": "SH-4", "experiment": "Cell viability assay (Cell Titer-Glo), SH-4", "format": "cell-based", "conditions": "Homo sapiens; SH-4, malignant melanoma, BRAF V600E; read-out: Ganetespib IC50", "protocol": "as §3"}, "DBTRG-05MG": {"test_system": "DBTRG-05MG", "experiment": "Cell viability assay (Cell Titer-Glo), DBTRG-05MG", "format": "cell-based", "conditions": "Homo sapiens, glioma, BRAF V600E, read-out: Ganetespib IC50", "protocol": "as §3"}, "SK-MEL-5": {"test_system": "SK-MEL-5", "experiment": "Cell viability assay (Cell Titer-Glo), SK-MEL-5", "format": "cell-based", "conditions": "Homo sapiens; SK-MEL-5, malignant melanoma, BRAF V600E; read-out: Ganetespib IC50", "protocol": "as §3"}, "A375": {"test_system": "A375", "experiment": "Cell viability assay (Cell Titer-Glo), A375", "format": "cell-based", "conditions": "Homo sapiens, A-375; A375, malignant melanoma, BRAF V600E; read-out: Ganetespib IC50", "protocol": "as §1, §3"}, "HTC-C3": {"test_system": "HTC-C3", "experiment": "Cell viability assay (Cell Titer-Glo), HTC-C3", "format": "cell-based", "conditions": "Homo sapiens; HTC-C3, carcinoma, BRAF V600E; read-out: Ganetespib IC50", "protocol": "as §3"}, "SW872": {"test_system": "SW872", "experiment": "Cell viability assay (Cell Titer-Glo), SW872", "format": "cell-based", "conditions": "Homo sapiens; SW872, liposarcoma, BRAF V600E; read-out: Ganetespib IC50", "protocol": "as §3"}, "UACC-257": {"test_system": "UACC-257", "experiment": "Cell viability assay (Cell Titer-Glo), UACC-257", "format": "cell-based", "conditions": "Homo sapiens; UACC-257, malignant melanoma, BRAF V600E; read-out: Ganetespib IC50", "protocol": "as §3"}, "RVH-421": {"test_system": "RVH-421", "experiment": "Cell viability assay (Cell Titer-Glo), RVH-421", "format": "cell-based", "conditions": "Homo sapiens; RVH-421, malignant melanoma, BRAF V600E; read-out: Ganetespib IC50", "protocol": "as §3"}, "MZ7-mel": {"test_system": "MZ7-mel", "experiment": "Cell viability assay (Cell Titer-Glo), MZ7-mel", "format": "cell-based", "conditions": "Homo sapiens, malignant melanoma, BRAF V600E, read-out: Ganetespib IC50", "protocol": "as §3"}, "MMAC-SF": {"test_system": "MMAC-SF", "experiment": "Cell viability assay (Cell Titer-Glo), MMAC-SF", "format": "cell-based", "conditions": "Homo sapiens, malignant melanoma, BRAF V600E, read-out: Ganetespib IC50", "protocol": "as §3"}, "[2]": {"test_system": "human cancer cells harboring the V600E mutation in BRAF", "experiment": "Cell viability, panel of BRAF mutant cancer cell lines", "format": "cell-based", "conditions": "large panel of human cancer cells harboring BRAF V600E; read-out: IC50 across panel", "protocol": "as §3"}, "RPMI-7951 melanoma cells [3]": {"test_system": "RPMI-7951 melanoma cells", "experiment": "Cell viability assay, RPMI-7951 melanoma cells", "format": "cell-based", "conditions": "Homo sapiens; RPMI-7951 cells; read-out: IC90 cell killing", "protocol": "as §1, §3"}, "A375 melanoma cells": {"test_system": "A375 melanoma cells", "experiment": "Western blotting, A375 cells", "format": "cell-based, human", "conditions": "A375, 24 hr, western blot", "protocol": "as §1, §2"}, "SK-MEL-28 melanoma cells": {"test_system": "SK-MEL-28 melanoma cells", "experiment": "Western blotting, SK-MEL-28 cells", "format": "cell-based, human", "conditions": "SK-MEL-28, 24 hr, western blot, FIG. 1", "protocol": "as §1, §2"}, "[4]": {"test_system": "B-raf V600E in melanoma cell line A375", "conditions": "cited from earlier work"}, "[5]": {"test_system": "B-raf mutants in COS cells", "conditions": "cited from earlier work"}}}
{"smiles": "Cn1cnc2c(F)c(Nc3ccc(Br)cc3Cl)c(C(=O)NOCCO)cc21", "note": "[AZD6244, reference compound]", "values": [{"measurement": "suppression of ERK phosphorylation", "setting": "RPMI-7951 melanoma cells [1]; RPMI-7951 (overexpress COT), 24 hr", "value": "neither the MEK inhibitor AZD6244 nor the BRAF inhibitor PLX-4032 were capable of suppressing ERK phosphorylation"}]}
{"smiles": "CC(C)c1cc(-c2nnc(O)n2-c2ccc3c(ccn3C)c2)c(O)cc1O", "note": "[Ganetespib, 3-(2,4-DIHYDROXY-5- ISOPROPYL-PHENYL)-4-(1- METHYL-INDOL-5-YL)-5- HYDROXY-[1,2,4]TRIAZOLE]", "values": [{"measurement": "IC50", "setting": "ACN", "value": 0.004, "unit": "µM"}, {"measurement": "IC50", "setting": "RKO", "value": 0.004, "unit": "µM"}, {"measurement": "IC50", "setting": "IST-MEL1", "value": 0.004, "unit": "µM"}, {"measurement": "IC50", "setting": "LS-411N", "value": 0.005, "unit": "µM"}, {"measurement": "IC50", "setting": "COLO-829", "value": 0.005, "unit": "µM"}, {"measurement": "IC50", "setting": "HT-144", "value": 0.006, "unit": "µM"}, {"measurement": "IC50", "setting": "SK-HEP-1", "value": 0.009, "unit": "µM"}, {"measurement": "IC50", "setting": "A101D", "value": 0.009, "unit": "µM"}, {"measurement": "IC50", "setting": "SW982", "value": 0.01, "unit": "µM"}, {"measurement": "IC50", "setting": "K5", "value": 0.011, "unit": "µM"}, {"measurement": "IC50", "setting": "SH-4", "value": 0.012, "unit": "µM"}, {"measurement": "IC50", "setting": "DBTRG-05MG", "value": 0.014, "unit": "µM"}, {"measurement": "IC50", "setting": "SK-MEL-5", "value": 0.018, "unit": "µM"}, {"measurement": "IC50", "setting": "A375", "value": 0.02, "unit": "µM"}, {"measurement": "IC50", "setting": "HTC-C3", "value": 0.021, "unit": "µM"}, {"measurement": "IC50", "setting": "SW872", "value": 0.022, "unit": "µM"}, {"measurement": "IC50", "setting": "UACC-257", "value": 0.024, "unit": "µM"}, {"measurement": "IC50", "setting": "RVH-421", "value": 0.026, "unit": "µM"}, {"measurement": "IC50", "setting": "MZ7-mel", "value": 0.026, "unit": "µM"}, {"measurement": "IC50", "setting": "MMAC-SF", "value": 0.031, "unit": "µM"}, {"measurement": "IC50", "setting": "[2]", "value": "0.004 to 0.04", "unit": "µM"}, {"measurement": "IC90", "setting": "RPMI-7951 melanoma cells [3]", "value": 0.01, "unit": "µM"}, {"measurement": "MEK and ERK activity", "setting": "A375 melanoma cells; FIG. 1", "value": "loss of MEK and ERK activity"}, {"measurement": "destabilizing mutant BRAF", "setting": "A375 melanoma cells; FIG. 1", "value": "fully capable of destabilizing mutant BRAF"}, {"measurement": "Cdc2 stability", "setting": "A375 melanoma cells; FIG. 2", "value": "destabilized Cdc2"}, {"measurement": "PI3K and mTOR-mediated phosphorylation of AKT and 4EBP1", "setting": "A375 melanoma cells; FIG. 2", "value": "suppressed"}, {"measurement": "apoptosis as determined by PARP cleavage", "setting": "A375 melanoma cells; FIG. 2", "value": "resulting in apoptosis"}, {"measurement": "destabilization of BRAF dimerization partner CRAF", "setting": "A375 melanoma cells; FIG. 3", "value": "able to destabilize"}, {"measurement": "potency in deactivating/dephosphorylating ERK versus PLX-4032 or AZD6244", "setting": "A375 melanoma cells; FIG. 3", "value": "greater potency"}, {"measurement": "MEK and ERK activity", "setting": "SK-MEL-28 melanoma cells", "value": "loss of MEK and ERK activity"}, {"measurement": "destabilizing mutant BRAF", "setting": "SK-MEL-28 melanoma cells", "value": "fully capable of destabilizing mutant BRAF"}, {"measurement": "AKT activity", "setting": "RPMI-7951 melanoma cells [1]; RPMI-7951, 24 hr", "value": "effectively inhibited"}, {"measurement": "MEK and ERK activity", "setting": "RPMI-7951 melanoma cells [1]; RPMI-7951, 24 hr", "value": "effectively inhibited"}]}
{"smiles": "C=CCNC1=C2C[C@@H](C)C[C@H](OC)[C@H](O)[C@@H](C)/C=C(\\C)[C@H](OC(N)=O)[C@@H](OC)/C=C\\C=C(/C)C(=O)NC(=CC1=O)C2=O", "note": "[Compound 17AAG]", "values": [{"measurement": "B-raf degradation rate versus wild type B-raf CHL cells", "setting": "[4]", "value": "degraded more rapidly"}, {"measurement": "degradation of B-raf mutants E586K and L597V", "setting": "[5]; cells treated with 17AAG", "value": "not sensitive to degradation"}, {"measurement": "degradation of B-raf mutants V600D, G469A, G469E, G596R, G466V, G594V", "setting": "[5]; transvected into COS cells, versus wild type B-raf", "value": "degraded more rapidly than wild type B-raf"}]}
